Source: ChEMBL document CHEMBL1135774 (J Med Chem, 2002)

Experiments:
Homo sapiens = organism: Homo sapiens; experiment: Selectivity for human retinal cone PDE-6 and human corpus cavernosum PDE-5
[1] = biological target: cGMP-specific 3',5'-cyclic phosphodiesterase (Homo sapiens, UniProt O76074); experiment: Phosphodiesterase 5 activity of human corpus cavernosum
[2] = pKa value of the compound; type: physicochemical
Canis familiaris [3] = experiment: In vivo effect on erectile dysfunction in dogs after intravenous dose; type: functional; settings: Canis lupus familiaris
[4] = Oral bioavailability in rat; type: ADME, organism-based; settings: in vivo
Canis familiaris [5] = experiment: In vivo efficacy in dogs; type: functional; settings: Canis lupus familiaris
[6] = pKa of the compound; type: physicochemical
Canis familiaris [7] = experiment: In vivo efficacy in dogs.; type: functional; settings: Canis lupus familiaris

SMILES: COc1ccc(-c2cnc(N3Cc4c(nc5ccccc5c4O)C3c3ccc4c(c3)CCC4)nc2)cc1OC (stereo not drawn)
- Ratio (Homo sapiens): 2.14
- Ki [1]: 1.14 nM

SMILES: COc1ccc(-c2cnc(N3CC(=O)c4c([nH]c5ccccc45)C3c3ccc4c(c3)OCO4)nc2)cc1OC (stereo not drawn)
- Ki [1]: 8.86 nM
- pKa [2]: ~14

SMILES: COc1ccc(-c2cnc(N3Cc4c(nc5ccccc5c4O)[C@H]3c3ccc4c(c3)CCO4)nc2)cc1
- Ratio (Homo sapiens): 27
- ED50 (Canis familiaris [3]): 9.6 µg/kg
- Ki [1]: 0.23 nM

SMILES: COc1ccc(-c2cnc(N3Cc4c(nc5ccccc5c4O)C3c3ccc4c(c3)OCO4)nc2)cc1 (stereo not drawn)
- Ratio (Homo sapiens): 18.5
- Ki [1]: 0.31 nM

SMILES: COc1ccc(-c2cnc(N3Cc4c(nc5ccccc5c4O)C3c3ccc(OC)c(OC)c3)nc2)cc1OC (stereo not drawn)
- Ki [1]: 24.7 nM

SMILES: Oc1c2c(nc3ccccc13)C(c1ccc3c(c1)CCO3)N(c1ncccn1)C2 (stereo not drawn)
- Ratio (Homo sapiens): 310
- Ki [1]: 1.08 nM

SMILES: Oc1c2c(nc3ccccc13)C(c1ccc3c(c1)OCO3)N(c1ncccn1)C2 (stereo not drawn)
- Ratio (Homo sapiens): 7.4
- Ki [1]: 1.2 nM

SMILES: Oc1ccc(-c2cnc(N3Cc4c(nc5ccccc5c4O)C3c3ccc4c(c3)CCO4)nc2)cc1 (stereo not drawn)
- Ki [1]: 1.75 nM

SMILES: CCCc1nn(C)c2c(=O)[nH]c(-c3cc(S(=O)(=O)N4CCN(C)CC4)ccc3OCC)nc12
- bioavailability [4]: 11%
- ED50 (Canis familiaris [5]): 5.1 µg/kg

SMILES: COc1ccc(-c2cnc(N3Cc4c(nc5ccccc5c4O)C3c3ccc4c(c3)CCO4)nc2)cc1 (stereo not drawn)
- Ratio (Homo sapiens): 55.9
- bioavailability [4]: 20%
- Ki [1]: 0.4 nM

SMILES: COc1ccc(-c2cnc(N3Cc4c(nc5ccccc5c4O)[C@H]3c3ccc4c(c3)OCO4)nc2)cc1OC
- Ratio (Homo sapiens): 0.59
- Ki [1]: 0.21 nM
- pKa [6]: 9
- ED50 (Canis familiaris [7]): 22.4 µg/kg

SMILES: COc1ccc(-c2cnc(N3Cc4c(nc5ccccc5c4O)C3c3ccc4c(c3)OCCO4)nc2)cc1 (stereo not drawn)
- Ratio (Homo sapiens): 3.07
- Ki [1]: 0.52 nM

SMILES: Oc1c2c(nc3ccccc13)C(c1ccc3c(c1)CCO3)N(c1ncc(-c3ccc(OCCN4CCOCC4)cc3)cn1)C2 (stereo not drawn)
- Ki [1]: 0.29 nM

SMILES: CCN(CC)CCOc1ccc(-c2cnc(N3Cc4c(nc5ccccc5c4O)C3c3ccc4c(c3)CCO4)nc2)cc1 (stereo not drawn)
- Ki [1]: 0.53 nM
